# Laboratory results published in patent US10882837B2, “Amide compounds and use thereof” (ALPHALA CO., LTD., priority 2017, dated 2021).
# Key:
# GCGR = GCGR (Homo sapiens, UniProt P47871); test: I125-glucagon binding assay (competition, GCGR membrane fractions); design: expressed in transfected cells; host or cells: CHO-K1; conditions: for IC50: competition with I125-glucagon 0.0625 nM, membrane fractions from GCGR overexpressed CHO-K1 cells; for inhibition at 30 µM: compound at 30 μM, read-out: percentage of inhibition (number in parenthesis in IC50 binding column)
# Chain of GCGR (P47871 26-477, species assumed): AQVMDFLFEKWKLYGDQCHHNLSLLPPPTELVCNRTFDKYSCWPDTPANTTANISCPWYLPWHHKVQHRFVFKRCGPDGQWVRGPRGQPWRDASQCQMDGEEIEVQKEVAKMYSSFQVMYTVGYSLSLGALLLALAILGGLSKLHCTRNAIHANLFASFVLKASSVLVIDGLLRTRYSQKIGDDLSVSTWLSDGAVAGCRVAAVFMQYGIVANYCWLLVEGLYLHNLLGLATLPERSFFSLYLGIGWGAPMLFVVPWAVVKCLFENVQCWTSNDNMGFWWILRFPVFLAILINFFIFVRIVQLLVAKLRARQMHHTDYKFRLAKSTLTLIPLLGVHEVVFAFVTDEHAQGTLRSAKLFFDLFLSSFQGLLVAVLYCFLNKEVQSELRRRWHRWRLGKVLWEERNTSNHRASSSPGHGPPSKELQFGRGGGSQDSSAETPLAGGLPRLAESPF
# How it was run: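 Membranes from CHO-K1 cells overexpressing GCGR (7.5 µg/well) were preincubated 5 min with serially diluted compound in 50 mM Tris pH 7.4, 0.5% BSA. I125-glucagon was then added at 0.0625 nM final and incubated 30 min at 25 °C. After filtration, bound radioactivity was counted and IC50 derived by non-linear regression.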
# glucagon receptor (GCGR) = molecular target: T1, glucagon receptor (GCGR) (Homo sapiens, UniProt P47871); test: Glucagon cAMP inhibition assay (Cisbio cAMP Dynamic 2 HTRF); format: cell-based; conditions: GCGR overexpressed CHO-K1 cells or human primary hepatocytes (not specified); glucagon at EC50
# T1 construct: expressed in transfected cells; host or cells: CHO-K1
# T1 sequence (P47871 26-477, species assumed): as above
# How it was run: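 GCGR-overexpressing CHO-K1 cells or human primary hepatocytes in HBSS with 0.1% BSA and 800 nM IBMX, pre-incubated 30 min with compound (1% DMSO final), then stimulated 30 min at room temperature with glucagon at its EC50. cAMP measured by HTRF after 60 min lysis; IC50 from non-linear regression.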
Compound,IC50 (GCGR),IC50 (glucagon receptor (GCGR)),inhibition at 30 µM (GCGR)
"COc1ccc(-c2nnc(-c3ccc(C(Nc4ccc(C(=O)NCCC(=O)O)cc4)C(C)C)cc3)o2)cc1 (centres unmarked) [Compound 1-26, 3-(4-((1-(4-(5-(4-methoxyphenyl)-1,3,4-oxadiazol-2-yl)phenyl)-2-methylpropyl)amino)benzamido)propanoic acid]",198 nM,4380 nM,
"CCCC[C@H](Nc1ccc(C(=O)NCCC(=O)OCC)cc1)c1ccc(-c2nnc(C(F)(F)F)o2)cc1 [Compound 1-51, ethyl (S)-3-(4-((1-(4-(5-(trifluoromethyl)-1,3,4-oxadiazol-2-yl)phenyl)pentyl)amino)benzamido)propanoate]",6170 nM,33.9 nM,
"CCOC(=O)CCNC(=O)c1ccc(OC(c2ccc(-c3nc4ccccc4s3)cc2)C(C)C)cc1 (centres unmarked) [Compound 6-1, Ethyl 3-(4-(1-(4-(benzo[d]thiazol-2-yl)phenyl)-2-methylpropoxy)benzamido)propanoate]",> 30000 nM,85.6 nM,
"COC(=O)CCNC(=O)c1ccc(NC(c2ccc(-c3nnc(-c4ccccc4)o3)cc2)C(C)C)cc1 (centres unmarked) [Compound 1-2, Methyl 3-(4-((2-methyl-1-(4-(5-phenyl-1,3,4-oxadiazol-2-yl)phenyl)propyl)amino)benzamido)propanoate]",1220 nM,113 nM,
"CCOC(=O)CCNC(=O)c1ccc(N[C@H](c2ccc(-c3noc(-c4ccccc4)n3)cc2)C(C)CC)cc1 (stereo partly drawn) [Compound 2-18, ethyl 3-(4-(((1S)-2-methyl-(4-(5-phenyl-1,2,4-oxadiazol-3-yl)phenyl)butyl)amino)benzamido)propanoate]",830 nM,46.7 nM,
"CC(C)C(Oc1ccc(-c2nc3ccccc3s2)cc1)c1ccc(C(=O)NCCC(=O)O)cc1 (centres unmarked) [Compound 7-4, 3-(4-(1-(4-(Benzo[d]thiazol-2-yl)phenoxy)-2-methylpropyl)benzamido)propanoic acid]",208 nM,209 nM,
CCOC(=O)CCNC(=O)c1ccc(C(Nc2ccc(-c3nnc(-c4ccccc4)o3)cc2)C(C)C)cc1 (centres unmarked) [Compound 3-4],2790 nM,1230 nM,
"CC(C)C(Nc1ccc(C(=O)NCCC(=O)O)cc1)c1ccc(-c2nc3ccccc3o2)cc1 (centres unmarked) [Compound 4-3, 3-(4-((1-(4-(benzo[d]oxazol-2-yl)phenyl)-2-methylpropyl)amino)benzamido)propanoic acid]",34 nM,2220 nM,
CCOC(=O)CCNC(=O)c1ccc(NC(c2ccc(-c3nnc(-c4ccc(F)cc4)o3)cc2)C(C)C)cc1 (centres unmarked) [Compound 1-17],3510 nM,322 nM,53%
"CCOC(=O)CCNC(=O)c1ccc([C@H](Nc2ccc(-c3nnc(-c4ccccc4)o3)cc2)C(C)C)cc1 [Compound 3-13, (R)-ethyl 3-(4-(2-methyl-1-(4-(5-phenyl-1,3,4-oxadiazol-2-yl)phenylamino)propyl)benzamido)propanoate]",> 30000 nM,207 nM,
"CCCC[C@@H](Nc1ccc(C(=O)NCCC(=O)OCC)cc1)c1ccc(-c2nnc(-c3ccccn3)o2)cc1 [Compound 1-44, ethyl (R)-3-(4-((1-(4-(5-(pyridin-2-yl)-1,1,3,4-oxadiazol-2-yl)phenyl)pentyl)amino)benzamido propanoate]",> 30000 nM,830 nM,
"CCOC(=O)CCNC(=O)c1ccc(N[C@@H](c2ccc(-c3nc4ccccc4o3)cc2)C2CCCC2)cc1 [Compound 4-11, ethyl (R)-3-(4-(((4-(benzo[d]oxazol-2-yl)phenyl)(cyclopentyl)methyl)amino)benzamido)propanoate]",755 nM,237 nM,
"CC(C)C(Nc1ccc(C(=O)NCCC(=O)O)cc1)c1ccc(-c2nnc(-c3ccccc3)o2)cc1 (centres unmarked) [Compound 1-1, 3-(4-((2-Methyl-1-(4-(5-phenyl-1,3,4-oxadiazol-2-yl)phenyl)propyl)amino)benzamido)propanoic acid]",27 nM,4690 nM,
"CCCC[C@H](Nc1ccc(C(=O)NCCC(=O)OCC)cc1)c1ccc(-c2nc(-c3ccccc3)no2)cc1 [Compound 5-7, ethyl (S)-3-(4-((1-(4-(3-phenyl-1,2,4-oxadiazol-5-yl)phenyl)pentyl)amino)benzamido)propanoate]",1020 nM,59 nM,32%
"CC(C)C[C@@H](Nc1ccc(C(=O)NCCC(=O)O)cc1)c1ccc(-c2nnc(-c3ccccc3)o2)cc1 [Compound 1-62, (R)-3-(4-((3-methyl-1-(4-(5-phenyl-1,3,4-oxadiazol-2-yl)phenyl)butyl)amino)benzamido)propanoic acid]",876 nM,2050 nM,
"CCC(C)[C@@H](Nc1ccc(C(=O)NCCC(=O)O)cc1)c1ccc(-c2noc(-c3ccccc3)n2)cc1 (stereo partly drawn) [Compound 2-21, 3-(4-(((1R)-2-methyl-1-(4-(5-phenyl-1,2,4-oxadiazol-3-yl)phenyl)butyl)amino)benzamido)propanoic acid]",85 nM,569 nM,
"CCCC[C@H](Nc1ccc(C(=O)NCCC(=O)O)cc1)c1ccc(-c2nc3ccccc3o2)cc1 [Compound 4-16, (S)-3-(4-((1-(4-(benzo[d]oxazol-2-yl)phenyl)pentyl)amino)benzamido)propanoic acid]",36 nM,785 nM,
"CCCC[C@H](Nc1ccc(C(=O)NCCC(=O)O)cc1)c1ccc(-c2nc(-c3ccccc3)no2)cc1 [Compound 5-8, (S)-3-(4-((1-(4-(3-phenyl-1,2,4-oxadiazol-5-yl)phenyl)pentyl)amino)benzamido)propanoic acid]",14 nM,202 nM,
"CCCC[C@@H](Nc1ccc(C(=O)NCCC(=O)O)cc1)c1ccc(-c2noc(-c3ccccn3)n2)cc1 [Compound 2-40, (R)-3-(4-((1-(4-(5-(pyridin-2-yl)-1,2,4-oxadiazol-3-yl)phenyl)pentyl)amino)benzamido)propanoic acid]",1020 nM,138 nM,
"CC(C)[C@@H](Nc1ccc(C(=O)NCCC(=O)O)cc1)c1ccc(-c2noc(-c3ccccc3)n2)cc1 [Compound 2-23, (R)-3-(4-((2-methyl-1-(4-(5-phenyl-1,2,4-oxadiazol-3-yl)phenyl)propyl)amino)benzamido)propanoic acid]",537 nM,1000 nM,
"CCC(C)C(Nc1ccc(C(=O)NCCC(=O)O)cc1)c1ccc(-c2nnc(C(C)(C)C)o2)cc1 (centres unmarked) [Compound 1-22, 3-(4-((1-(4-(5-(tert-butyl)-1,3,4-oxadiazol-2-yl)phenyl)-2-methylbutyl)amino)benzamido)propanoic acid]",246 nM,10300 nM,
"CCC(C)[C@@H](Nc1ccc(C(=O)NCCC(=O)O)cc1)c1ccc(-c2nnc(-c3ccccc3)o2)cc1 (stereo partly drawn) [Compound 1-50, 3-(4-(((1R)-2-methyl-1-(4-(5-phenyl-2,3,4-oxadiazol-2-yl)phenyl)butyl)amino)benzamido)propanoic acid]",82 nM,2730 nM,
"CCOC(=O)CCNC(=O)c1ccc(N[C@H](c2ccc(-c3nc4ccccc4o3)cc2)C2CCCC2)cc1 [Compound 4-23, ethyl (S)-3-(4-(((4-(benzo[d]oxazol-2-yl)phenyl)(cyclopentyl)methyl)amino)benzamido)propanoate]",308 nM,65 nM,
"CC(C)[C@@H](Nc1ccc(-c2nnc(-c3ccccc3)o2)cc1)c1ccc(C(=O)NCCC(=O)O)cc1 [Compound 3-15, (R)-3-(4-(2-methyl-1-(4-(5-phenyl-1,3,4-oxadiazol-2-yl)phenylamino)propyl)benzamido)propanoic acid]",21 nM,632 nM,
"CCCCC(Nc1ccc(C(=O)NCCC(=O)O)cc1)c1ccc(-c2noc(-c3ccccc3)n2)cc1 (centres unmarked) [Compound 2-8, 3-(4-((1-(4-(5-phenyl-1,2,4-oxadiazol-3-yl)phenyl)pentyl)amino)benzamido)propanoic acid]",70 nM,934 nM,
"CCC(C)C(Nc1ccc(-c2nnc(-c3ccc(F)cc3)o2)cc1)c1ccc(C(=O)NCCC(=O)O)cc1 (centres unmarked) [Compound 3-8, 3-(4-(1-((4-(5-(4-fluorophenyl)-1,3,4-oxadiazol-2-yl)phenyl)amino)-2-methylbutyl)benzamido)propanoic acid]",74 nM,1030 nM,
"CCOC(=O)CCNC(=O)c1ccc(N[C@H](c2ccc(-c3nc4ccccc4s3)cc2)C(C)C)cc1 [Compound 4-25, ethyl (S)-3-(4-((1-(4-(benzo[d]thiazol-2-yl)phenyl)-2-methylpropyl)amino)benzamido)propanoate]",188 nM,30.3 nM,
"CC(C)C(Nc1ccc(C(=O)NCCC(=O)O)cc1)c1ccc(-c2noc(-c3ccccc3)n2)cc1 (centres unmarked) [Compound 2-26, 3-(4-((2-methyl-1-(4-(5-phenyl-1,2,4-oxadiazol-3-yl)phenyl)propyl)amino)benzamido)propanoic acid]",40 nM,570 nM,
"CCC(C)[C@@H](Nc1ccc(C(=O)NCCC(=O)O)cc1)c1ccc(-c2nc3ccccc3o2)cc1 (stereo partly drawn) [Compound 4-22, 3-(4-(((1R)-1-(4-(benzo[d]oxazol-2-yl)phenyl)-2-methylbutyl)amino)benzamido)propanoic acid]",60 nM,899 nM,
"CC(C)[C@H](Nc1ccc(C(=O)NCCC(=O)O)cc1)c1ccc(-c2nc(-c3ccccc3)no2)cc1 [Compound 5-4, (S)-3-(4-((2-methyl-1-(4-(3-phenyl-1,2,4-oxadiazol-5-yl)phenyl)propyl)amino)benzamido)propanoic acid]",34.1 nM,292 nM,
